Among the data in patent publication US7605168B2 (Plexxikon, Inc., priority 2004, dated 2009) are IC50 values, retold here.

A value given as a limit tells only on which side of the number the result lay.

The target in assay [1] is T1, PDE4B: catalytic domain of human PDE4B from S152-S528 (Homo sapiens, UniProt Q07343).
T1 construct: The catalytic domain of human PDE4B from S152-S528; His6 (N, cleaved yes); thrombin cleavage site (N, cleaved yes); made in house; host or cells: E. coli BL21 (DE3) RIL
T1 sequence (Q07343 324-700): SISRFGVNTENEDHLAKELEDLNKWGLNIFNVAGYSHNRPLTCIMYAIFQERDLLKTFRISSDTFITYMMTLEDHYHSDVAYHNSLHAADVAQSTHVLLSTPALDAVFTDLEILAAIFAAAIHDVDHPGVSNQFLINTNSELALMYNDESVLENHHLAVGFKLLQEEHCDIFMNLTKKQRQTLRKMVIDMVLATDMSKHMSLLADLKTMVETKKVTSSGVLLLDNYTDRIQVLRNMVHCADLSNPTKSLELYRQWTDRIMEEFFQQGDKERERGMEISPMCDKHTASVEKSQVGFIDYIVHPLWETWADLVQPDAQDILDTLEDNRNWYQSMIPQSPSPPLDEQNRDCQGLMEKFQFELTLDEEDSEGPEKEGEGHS
As to the kind of experiment: PDE4 IC50 determination by Scintillation Proximity Assay (SPA), PDE4B catalytic domain. The format is biochemical. The settings on record: [3H]cAMP SPA, 30 min at 30° C. The method, boiled down: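 Human PDE4B catalytic domain (80 ng/ml) hydrolysed [3H]cAMP in 50 mM Tris pH 7.5, 8.3 mM MgCl, 1.7 mM EGTA, 0.01% BSA for 30 min at 30 °C. Reaction was stopped with yttrium silicate SPA beads in 18 mM ZnSO4, and bound [3H]AMP was counted by scintillation. IC50 came from non-linear regression.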
Background: SPA uses beads or plates that emit light when radiolabelled molecules are held near them.

In assay [2] the target is T2, PDE4B2: full-length human PDE4B2 isozyme (Homo sapiens, UniProt Q07343).
T2 construct: made in house; host or cells: baculovirus infected insect cells (pFastBacHT)
T2 sequence (Q07343 with tags, fused parts or gaps isoform Q07343-2): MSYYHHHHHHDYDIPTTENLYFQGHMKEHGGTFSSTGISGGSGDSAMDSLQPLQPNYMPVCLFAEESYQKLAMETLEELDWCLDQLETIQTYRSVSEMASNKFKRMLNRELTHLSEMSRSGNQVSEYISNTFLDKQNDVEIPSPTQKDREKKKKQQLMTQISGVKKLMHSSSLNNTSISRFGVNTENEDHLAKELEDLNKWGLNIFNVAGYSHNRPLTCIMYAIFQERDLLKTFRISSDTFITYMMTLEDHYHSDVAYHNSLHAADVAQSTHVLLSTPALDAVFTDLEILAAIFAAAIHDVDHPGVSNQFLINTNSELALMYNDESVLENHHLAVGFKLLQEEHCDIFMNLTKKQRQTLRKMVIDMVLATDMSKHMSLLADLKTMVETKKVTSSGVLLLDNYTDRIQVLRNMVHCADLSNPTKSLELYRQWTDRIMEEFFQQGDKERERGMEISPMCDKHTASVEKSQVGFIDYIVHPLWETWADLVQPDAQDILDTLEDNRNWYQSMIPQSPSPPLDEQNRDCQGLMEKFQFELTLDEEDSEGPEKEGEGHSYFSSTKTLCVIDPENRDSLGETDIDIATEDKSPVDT
As to the kind of experiment: PDE4 IC50 determination by Scintillation Proximity Assay (SPA), full-length PDE4B2. The format is biochemical. As to conditions: cell lysate, [3H]cAMP SPA. The method, boiled down: (§1)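 Unpurified enzyme from cell lysates (PDE4B2 2.5 μl, PDE4D5 0.083 μl of 50% glycerol stock/ml) hydrolysing [3H]cAMP in 50 mM Tris pH 7.5, 8.3 mM MgCl, 1.7 mM EGTA, 0.01% BSA, 30 min at 30 °C. Stopped with yttrium silicate SPA beads in 18 mM ZnSO4; bead-bound [3H]AMP counted. IC50 by non-linear regression.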

The target of assay [3] is T3, PDE4D: catalytic domain S316-V692 (Homo sapiens, UniProt Q08499).
T3 construct: pET15S PDE4D S316-V692-X; His6 (N, cleaved yes); thrombin cleavage site (N, cleaved yes); made in house; host or cells: E. coli BL21 (DE3) RIL
T3 sequence (Q08499 380-756): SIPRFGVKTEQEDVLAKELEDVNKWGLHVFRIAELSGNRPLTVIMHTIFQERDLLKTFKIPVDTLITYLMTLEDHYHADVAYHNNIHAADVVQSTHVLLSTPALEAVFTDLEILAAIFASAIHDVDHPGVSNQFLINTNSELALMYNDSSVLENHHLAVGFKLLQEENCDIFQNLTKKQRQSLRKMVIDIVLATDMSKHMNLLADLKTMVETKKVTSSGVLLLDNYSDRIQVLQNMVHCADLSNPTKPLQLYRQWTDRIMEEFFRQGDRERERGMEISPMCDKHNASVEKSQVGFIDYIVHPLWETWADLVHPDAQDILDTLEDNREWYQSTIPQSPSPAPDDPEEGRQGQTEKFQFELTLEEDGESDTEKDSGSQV
Nature of the assay: PDE4 IC50 determination by Scintillation Proximity Assay (SPA), PDE4D catalytic domain. It counts as biochemical. As to conditions: [3H]cAMP SPA, 30 min at 30° C. Here is the method: IC50s were determined by Scintillation Proximity Assay (SPA). The principle of the assay is based on the fact that cAMP, the PDE4 substrate, binds weakly to Yittrium Silicate SPA beads, whereas AMP, the product of PDE4 hydrolysis binds strongly. Thus, the extent of PDE4 hydrolysis of a sample of [^3H]cAMP can be measured because only the [^3H]AMP produced by PDE4 hydrolysis will bind to the SPA beads and produce a scintillation signal.
[…] Enzyme was stored in 50% glycerol at −20°. See Example 144.
Compounds tested (see Tables 5 for compounds and results) were 3-fold serially diluted 11 times in DMSO from a starting concentration of 4 mM or 40 μM, depending on compound potency. 1 μl of each dilution was transferred into duplicate wells of a white polystyrene 384-well assay plate (Corning #3710). In addition to the compound dilutions, each assay plate contained control wells with 1 μl of DMSO (to define 0% enzyme inhibition) or 1 μl of 200 μM roflumilast (to define 100% enzyme inhibition). Using a Beckman FX robot, 10 μl of [^3H] cAMP (Amersham TRK559) at […] in assay buffer (50 mM Tris, pH 7.5; 8.3 mM MgCl; 1.7 mM EGTA; 0.01% BSA) was transferred to each assay well. Next, 10 μl of PDE4 enzyme in assay buffer was added and the plates were shaken for 30 s. at 1000 rpm to start the cAMP hydrolysis reaction. The concentrations of enzyme used were: PDE4B, 80 ng/ml; PDE4D, 4 ng/ml; PDE4B2, 2.5 μl of 50% glycerol stock/ml; PDE4D5 0.083 μl of 50% glycerol stock/ml. Assay plates were covered and incubated for 30 min. at 30° C. Reactions were stopped by robotic addition of 10 μl of 5 mg/ml SPA beads (Amersham RPNQ0013) in 18 mM ZnSO4. The assay plates were covered with clear plastic film, centrifuged for 1 min. at 1000 RPM to settle the SPA beads, and counted using a Wallac TriLux scintillation counter. IC50's were calculated from the raw assay data by non-linear regression curve fitting using the Assay Explorer software package from MDL.

The target of assay [4] is T4, PDE4D5: full-length human PDE4D5 isozyme (Homo sapiens, UniProt Q08499).
T4 construct: made in house; host or cells: baculovirus infected insect cells (pFastBacHT)
T4 sequence (Q08499 with tags, fused parts or gaps isoform Q08499-6): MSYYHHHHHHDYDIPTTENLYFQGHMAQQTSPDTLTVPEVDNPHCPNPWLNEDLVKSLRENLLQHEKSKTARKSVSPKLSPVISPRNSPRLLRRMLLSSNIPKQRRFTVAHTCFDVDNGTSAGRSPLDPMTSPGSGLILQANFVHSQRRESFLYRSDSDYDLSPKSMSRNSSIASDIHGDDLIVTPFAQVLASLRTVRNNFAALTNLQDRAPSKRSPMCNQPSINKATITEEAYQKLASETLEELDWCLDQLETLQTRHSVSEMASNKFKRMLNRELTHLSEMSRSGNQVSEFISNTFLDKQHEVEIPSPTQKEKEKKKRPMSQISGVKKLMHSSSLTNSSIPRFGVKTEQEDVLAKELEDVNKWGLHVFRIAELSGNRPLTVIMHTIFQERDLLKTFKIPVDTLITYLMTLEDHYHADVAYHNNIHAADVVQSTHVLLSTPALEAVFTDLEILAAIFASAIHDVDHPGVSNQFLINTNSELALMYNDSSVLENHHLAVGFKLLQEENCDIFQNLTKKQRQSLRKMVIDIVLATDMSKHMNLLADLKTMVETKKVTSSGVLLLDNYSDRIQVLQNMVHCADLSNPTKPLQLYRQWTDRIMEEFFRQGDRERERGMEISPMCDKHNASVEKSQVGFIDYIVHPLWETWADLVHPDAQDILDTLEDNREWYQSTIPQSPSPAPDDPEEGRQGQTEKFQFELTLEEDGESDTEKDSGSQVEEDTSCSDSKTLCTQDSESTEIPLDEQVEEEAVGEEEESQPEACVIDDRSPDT
As to the kind of experiment: PDE4 IC50 determination by Scintillation Proximity Assay (SPA), full-length PDE4D5. It counts as biochemical. The settings on record: cell lysate, [3H]cAMP SPA. The method, boiled down:
as §1

The test system of assay [5] is TNF-α release from whole blood cultures stimulated with LPS. As to the kind of experiment: IC50 by TNF alpha production upon stimulation of whole blood cultures with LPS. It counts as cell-based. As to conditions: human whole blood (buffy coat) culture, 100 ng/ml LPS, 4 hours; read-out: h TNFα IC50. In outline: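 Human buffy coat, diluted with 7 volumes of RPMI/2.5% heat-inactivated FBS, was preincubated with compound (8-point 1:3 series) for 1 h at 37 °C. It was then stimulated with 100 ng/ml LPS (final) for 4 h. Supernatant TNF-α was measured by sandwich ELISA at 450 nm, and IC50 was set between DMSO (0%) and PDE4-inhibitor (100%) controls.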

As for `COc1ccc(-c2cn(S(=O)(=O)Cc3cccc([N+](=O)[O-])c3)c3ncccc23)cc1OC` [Compound 18, 3-(3,4-dimethoxy-phenyl)-1-(3-nitro-phenylmethanesulfonyl)-1H-pyrrolo[2,3-b]pyridine], the 50% inhibitory concentration (IC50) in assay [1] is < 10 µM; in assay [2], < 10 µM; in assay [3], ≤ 10 µM; in assay [4], < 10 µM; in assay [5] it was ≤ 10 µM.
`COc1ccc(-c2cn(S(=O)(=O)c3cc(C)cc4cccnc34)c3ncccc23)cc1OC` [Compound 24]: the half-inhibitory concentration (IC50) in assay [1] was < 10 µM; in assay [2] it was < 10 µM; in assay [3], ≤ 10 µM; in assay [4] it was < 10 µM; in assay [5], ≤ 10 µM.
On to `COc1ccc(-c2cn(C(=O)Nc3ccc(F)c([N+](=O)[O-])c3)c3ncccc23)cc1OC` [Compound 31, 3-(3,4-Dimethoxy-phenyl)-pyrrolo[2,3-b]pyridine-1-carboxylic acid (4-fluoro-3-nitro-phenyl)-amide], for which the half-inhibitory concentration (IC50) is < 10 µM in assay [1]; < 10 µM in assay [2]; ≤ 10 µM in assay [3]; < 10 µM in assay [4]; ≤ 10 µM in assay [5].
Regarding `COc1cccc(NC(=O)n2cc(-c3ccc(OC)c(OC)c3)c3cccnc32)c1` [Compound 32, 3-(3,4-Dimethoxy-phenyl)-pyrrolo[2,3-b]pyridine-1-carboxylic acid (3-methoxy-phenyl)-amide], the IC50 in assay [1] is < 10 µM; in assay [2], < 10 µM; in assay [3], ≤ 10 µM; in assay [4], < 10 µM; in assay [5], > 10 µM.
`COc1ccc(-c2cn(C(=O)Nc3ccc4c(c3)OCO4)c3ncccc23)cc1OC` [Compound 36, 3-(3,4-Dimethoxy-phenyl)-pyrrolo[2,3-b]pyridine-1-carboxylic acidbenzo[1,3]dioxol-5-ylamide]: the concentration for half-maximal inhibition (IC50) in assay [1] was < 10 µM; in assay [2], < 10 µM; in assay [3] it was ≤ 10 µM; in assay [4], < 10 µM; in assay [5], > 10 µM.
On to `COc1cccc(NC(=S)n2cc(-c3ccc(OC)c(OC)c3)c3cccnc32)c1` [Compound 42, 3-(3,4-dimethoxy-phenyl)-pyrrolo[2,3-b]pyridine-1-carbothioic acid (3-methoxy-phenyl)-amide], for which the IC50 in assay [1] was < 10 µM; in assay [2], < 10 µM; in assay [3], ≤ 10 µM; in assay [4], < 10 µM; in assay [5] it was > 10 µM.
`COc1ccc(-c2ccnc3[nH]ccc23)cc1OC` [Compound 50, 4-(3,4-Dimethoxy-phenyl)-1H-pyrrolo[2,3-b]pyridine]: the IC50 in assay [1] is < 10 µM; in assay [2] it was < 10 µM; in assay [3] it was ≤ 10 µM; in assay [4], < 10 µM; in assay [5] it was ≤ 10 µM.
In the case of `COc1ccc(-c2cn(Cc3cccc([N+](=O)[O-])c3)c3ncccc23)cc1OC` [Compound 53, 3-(3,4-Dimethoxy-phenyl)-1-(3-nitro-benzyl)-1H-pyrrolo[2,3-b]pyridine], the IC50 in assay [1] is < 10 µM; in assay [2], < 10 µM; in assay [3], ≤ 10 µM; in assay [4] it was < 10 µM; in assay [5] it was ≤ 10 µM.
As for `COc1ccc(-c2cn(C(=O)c3cccnc3)c3ncccc23)cc1OC` [Compound 56, [3-(3,4-Dimethoxy-phenyl)-pyrrolo[2,3-b]pyridin-1-yl]-(3-pyridylyl)-methanone-amide], the half-maximal inhibitory concentration (IC50) is < 10 µM in assay [1]; < 10 µM in assay [2]; ≤ 10 µM in assay [3]; < 10 µM in assay [4]; ≤ 10 µM in assay [5].
`COc1ccc(-c2cn(C(=O)c3ccc4c(OC(C)=O)cccc4c3)c3ncccc23)cc1OC` [Compound 62, Acetic acid 6-[3-(3,4-dimethoxy-phenyl)-pyrrolo[2,3-b]pyridine-1-carbonyl]-naphthalen-1-yl ester-amide]: the half-maximal inhibitory concentration (IC50) in assay [1] was < 10 µM; in assay [2], < 10 µM; in assay [3] it was ≤ 10 µM; in assay [4], < 10 µM; in assay [5], ≤ 10 µM.
Take `COc1ccc(-c2cn(C(=O)c3csc4ccccc34)c3ncccc23)cc1OC` [Compound 63, Benzo[b]thiophen-3-yl-[3-(3,4-dimethoxy-phenyl)-pyrrolo[2,3-b]pyridin-1-yl]-methanone]: the IC50 was < 10 µM in assay [1]; < 10 µM in assay [2]; ≤ 10 µM in assay [3]; < 10 µM in assay [4]; ≤ 10 µM in assay [5].
Take `COc1ccc(-c2cn(C(=O)c3ccc(F)c4ccccc34)c3ncccc23)cc1OC` [Compound 64, [3-(3,4-Dimethoxy-phenyl)-pyrrolo[2,3-b]pyridin-1-yl]-(4-fluoro-naphthalen-1-yl)-methanone]: the IC50 was < 10 µM in assay [1]; < 10 µM in assay [2]; ≤ 10 µM in assay [3]; < 10 µM in assay [4]; ≤ 10 µM in assay [5].
As for `COc1ccc(-c2cn(C(=O)c3cccc4c(OC)cccc34)c3ncccc23)cc1OC` [Compound 65, [3-(3,4-Dimethoxy-phenyl)-pyrrolo[2,3-b]pyridin-1-yl]-(5-methoxynaphthalen-1-yl)-methanone], the IC50 in assay [1] was < 10 µM; in assay [2], < 10 µM; in assay [3] it was ≤ 10 µM; in assay [4], < 10 µM; in assay [5] it was ≤ 10 µM.
In the case of `COc1ccc(-c2cn(C(=O)c3cccc4cccnc34)c3ncccc23)cc1OC` [Compound 66], the IC50 was < 10 µM in assay [1]; < 10 µM in assay [2]; ≤ 10 µM in assay [3]; < 10 µM in assay [4]; ≤ 10 µM in assay [5].
On to `COc1ccc(-c2cn(S(=O)(=O)c3ccc(-c4ccncc4C)cc3)c3ncccc23)cc1OC` [Compound 69, 3-(3,4-Dimethoxy-phenyl)-1-[4-(3-methyl-pyridin-4-yl)-benzenesulfonyl]-1H-pyrrolo[2,3-b]pyridine], for which the 50% inhibitory concentration (IC50) was < 10 µM in assay [1]; < 10 µM in assay [2]; ≤ 10 µM in assay [3]; < 10 µM in assay [4]; ≤ 10 µM in assay [5].
In the case of `COc1ccc(-c2c[nH]c3ncccc23)cc1OC1CCCC1` [Compound 88, 3-(3-Cyclopentyloxy-4-methoxy-phenyl)-1H-pyrrolo[2,3-b]pyridine], the 50% inhibitory concentration (IC50) in assay [1] is < 10 µM; in assay [2], < 10 µM; in assay [3], ≤ 10 µM; in assay [4], < 10 µM; in assay [5], ≤ 10 µM.
For `COc1ccc(-c2cn(S(=O)(=O)c3cccc4cc(C)cnc34)c3ccc(Cl)cc23)cc1OC1CCCC1` [Compound 95, 8-[5-Chloro-3-(3-cyclopentyloxy-4-methoxy-phenyl)-indole-1-sulfonyl]-3-methyl-quinoline], the IC50 in assay [1] is < 10 µM; in assay [2] it was < 10 µM; in assay [3], ≤ 10 µM; in assay [4] it was < 10 µM; in assay [5], ≤ 10 µM.

Broadly, the IC50 is the point on the concentration scale where inhibition reaches its midpoint.
